ChEMBL document CHEMBL1201862, “PubChem BioAssay data set” (2004)
Activity calls are given as the source filed them. Cut-off read from the data, not from the text of the source, for most assays here: actives have a measured EC50 and inactives only a lower limit.

What was measured:
Large T antigen = Large T antigen (Simian virus 40, UniProt P03070); assay type: functional, Betapolyomavirus macacae;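 note: Confirmatory-stage PubChem screen for compounds that inhibit SV40 T antigen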
Streptokinase A = biological target: T1, Streptokinase A (Streptococcus pyogenes serotype M1, UniProt P10520); experiment: viability-normalized secreted streptokinase activity reduction – plasminogen activation absorbance, OD405, dose response (AID 1914); assay type: functional, Streptococcus pyogenes M1 GAS;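 note: secreted streptokinase activity via plasminogen activation per viability signal from cell pellet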
T1 sequence (P10520 whole entry): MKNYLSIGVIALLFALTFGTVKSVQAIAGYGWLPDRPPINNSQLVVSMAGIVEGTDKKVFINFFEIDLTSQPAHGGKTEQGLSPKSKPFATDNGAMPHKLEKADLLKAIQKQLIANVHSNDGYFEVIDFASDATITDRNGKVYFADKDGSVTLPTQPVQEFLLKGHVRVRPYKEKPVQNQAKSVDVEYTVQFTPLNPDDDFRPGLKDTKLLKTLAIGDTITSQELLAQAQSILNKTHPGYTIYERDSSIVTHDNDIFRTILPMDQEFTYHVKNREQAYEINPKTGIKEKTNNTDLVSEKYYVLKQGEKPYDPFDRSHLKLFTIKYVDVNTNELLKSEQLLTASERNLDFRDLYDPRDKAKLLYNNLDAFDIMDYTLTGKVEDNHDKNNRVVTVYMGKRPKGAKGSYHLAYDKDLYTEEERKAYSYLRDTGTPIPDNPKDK

[1] = tested on: Streptococcus sp. 'group A'; experiment: Streptococcus pyogenes SK(-)GAS viability under kanamycin – luminescence, BacTiterGlo, confirmation, counter-screen for streptokinase expression inhibitor project, dose response (AID 1900); assay type: functional, organism-based
Streptococcus = experiment: GAS UMAA2166 growth inhibition – luminescence, BacTiterGlo, counter-screen for streptokinase expression inhibitor project, dose response (AID 1915); assay type: functional, organism-based;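 note: potency for reduction of bacterial viability or growth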
[2] = biological target: T2, Replicative DNA helicase DnaB (Mycobacterium tuberculosis, UniProt P9WMR3); experiment: DnaB intein splicing inhibitors, dose response, biochemical, cell-free fluorescence (AID 449749); assay type: functional
T2 sequence (P9WMR3 whole entry): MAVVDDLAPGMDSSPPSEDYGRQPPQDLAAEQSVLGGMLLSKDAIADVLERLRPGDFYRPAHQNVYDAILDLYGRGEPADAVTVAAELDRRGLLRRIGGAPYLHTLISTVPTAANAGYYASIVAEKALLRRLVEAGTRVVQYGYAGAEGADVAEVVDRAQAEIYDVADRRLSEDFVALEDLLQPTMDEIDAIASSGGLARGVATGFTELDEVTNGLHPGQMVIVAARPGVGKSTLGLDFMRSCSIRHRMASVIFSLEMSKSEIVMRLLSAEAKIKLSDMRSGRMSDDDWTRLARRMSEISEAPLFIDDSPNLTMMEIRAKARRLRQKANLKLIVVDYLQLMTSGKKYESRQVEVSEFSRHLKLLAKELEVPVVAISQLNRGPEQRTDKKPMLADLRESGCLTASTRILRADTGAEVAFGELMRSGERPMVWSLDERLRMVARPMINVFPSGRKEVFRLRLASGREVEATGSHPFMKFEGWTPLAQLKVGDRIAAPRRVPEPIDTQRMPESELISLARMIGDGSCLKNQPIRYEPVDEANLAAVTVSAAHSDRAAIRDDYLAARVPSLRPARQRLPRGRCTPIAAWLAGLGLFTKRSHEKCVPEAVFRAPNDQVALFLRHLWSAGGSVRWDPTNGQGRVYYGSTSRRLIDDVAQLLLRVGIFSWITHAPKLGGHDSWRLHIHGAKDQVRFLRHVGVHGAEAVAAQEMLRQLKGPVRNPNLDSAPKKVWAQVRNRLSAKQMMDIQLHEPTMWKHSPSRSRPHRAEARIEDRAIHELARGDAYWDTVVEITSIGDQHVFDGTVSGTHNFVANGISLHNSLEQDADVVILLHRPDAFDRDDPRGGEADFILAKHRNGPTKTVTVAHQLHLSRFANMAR

Protein RecA = biological target: T3, Protein RecA (Mycobacterium tuberculosis, UniProt P9WHJ3); experiment: Fluorescence Cell-Free Homogeneous Dose Retest to Identify Inhibitors of RecA-Intein Splicing Activity. [Related pubchem assays (depositor defined):AID2097, AID2223, AID489010, AID492950]; assay type: functional
T3 sequence (P9WHJ3 whole entry): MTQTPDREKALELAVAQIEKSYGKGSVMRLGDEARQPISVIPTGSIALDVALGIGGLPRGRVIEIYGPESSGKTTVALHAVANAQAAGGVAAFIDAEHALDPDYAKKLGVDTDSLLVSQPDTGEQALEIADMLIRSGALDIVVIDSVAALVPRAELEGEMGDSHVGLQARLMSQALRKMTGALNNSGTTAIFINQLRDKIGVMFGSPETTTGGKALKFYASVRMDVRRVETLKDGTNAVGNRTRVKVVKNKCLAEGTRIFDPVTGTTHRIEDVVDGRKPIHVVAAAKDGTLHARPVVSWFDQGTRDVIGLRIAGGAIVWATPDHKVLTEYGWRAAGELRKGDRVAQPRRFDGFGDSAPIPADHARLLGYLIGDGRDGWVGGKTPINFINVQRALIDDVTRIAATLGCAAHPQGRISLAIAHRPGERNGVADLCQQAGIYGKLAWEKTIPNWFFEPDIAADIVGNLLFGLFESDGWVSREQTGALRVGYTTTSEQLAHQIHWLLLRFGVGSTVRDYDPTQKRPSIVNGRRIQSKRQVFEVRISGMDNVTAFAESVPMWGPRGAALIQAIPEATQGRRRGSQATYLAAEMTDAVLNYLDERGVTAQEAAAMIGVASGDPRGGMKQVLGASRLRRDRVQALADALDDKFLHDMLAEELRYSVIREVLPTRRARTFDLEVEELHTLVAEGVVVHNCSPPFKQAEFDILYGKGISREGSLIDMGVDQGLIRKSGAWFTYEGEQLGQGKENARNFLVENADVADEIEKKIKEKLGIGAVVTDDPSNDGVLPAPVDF

Cytochrome P450 2D6 = Cytochrome P450 2D6 (Homo sapiens, UniProt P10635);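 note: CYP2D6 member of a cytochrome P450 panel assay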
[3] = biological target: T4, Rac GTPase-activating protein 1 (Homo sapiens, UniProt Q9H0H5); experiment: blockers of MgcRacGAP-driven Rac1 GTP hydrolysis – biochemical, ADP Hunter fluorescence, primary and confirmatory, confirmation (AID 624330); assay type: functional
T4 sequence (Q9H0H5 whole entry): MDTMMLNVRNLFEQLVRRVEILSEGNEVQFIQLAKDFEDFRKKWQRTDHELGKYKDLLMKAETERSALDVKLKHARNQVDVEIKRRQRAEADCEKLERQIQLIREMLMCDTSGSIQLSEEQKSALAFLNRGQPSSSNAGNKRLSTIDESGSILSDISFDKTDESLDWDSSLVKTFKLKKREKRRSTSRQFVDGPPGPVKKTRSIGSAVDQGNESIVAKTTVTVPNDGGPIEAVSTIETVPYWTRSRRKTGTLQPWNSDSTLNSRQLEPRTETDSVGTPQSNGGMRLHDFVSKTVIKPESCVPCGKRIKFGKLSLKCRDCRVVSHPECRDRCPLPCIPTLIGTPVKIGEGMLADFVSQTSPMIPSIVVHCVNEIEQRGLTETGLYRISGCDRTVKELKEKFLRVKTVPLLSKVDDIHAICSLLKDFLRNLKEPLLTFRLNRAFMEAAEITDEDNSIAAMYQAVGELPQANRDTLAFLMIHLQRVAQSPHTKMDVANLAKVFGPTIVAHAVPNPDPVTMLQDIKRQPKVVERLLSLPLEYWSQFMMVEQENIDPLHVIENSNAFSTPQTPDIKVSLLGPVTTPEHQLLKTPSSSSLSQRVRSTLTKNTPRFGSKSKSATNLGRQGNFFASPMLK

[4] = biological target: T5, Corticotropin-releasing factor receptor 2/Corticotropin-releasing factor-binding protein (Homo sapiens, UniProt P24387+Q13324); experiment: activators of CRF receptor 2 with binding protein – uHTS hits, confirmation (AID 602473); assay type: functional; conditions: read-out: EC50_Mean
T5 sequence (Q13324 whole entry): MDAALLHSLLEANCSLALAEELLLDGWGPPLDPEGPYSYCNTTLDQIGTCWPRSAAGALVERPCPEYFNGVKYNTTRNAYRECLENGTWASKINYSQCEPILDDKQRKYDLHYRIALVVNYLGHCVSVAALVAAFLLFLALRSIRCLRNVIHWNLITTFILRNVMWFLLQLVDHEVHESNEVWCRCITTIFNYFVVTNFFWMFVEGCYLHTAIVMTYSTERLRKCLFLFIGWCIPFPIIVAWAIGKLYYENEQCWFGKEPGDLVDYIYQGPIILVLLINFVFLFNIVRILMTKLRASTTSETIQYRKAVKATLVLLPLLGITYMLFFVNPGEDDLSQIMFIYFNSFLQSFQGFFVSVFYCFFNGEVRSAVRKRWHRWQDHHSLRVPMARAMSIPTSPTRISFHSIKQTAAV
T5 sequence (P24387 whole entry): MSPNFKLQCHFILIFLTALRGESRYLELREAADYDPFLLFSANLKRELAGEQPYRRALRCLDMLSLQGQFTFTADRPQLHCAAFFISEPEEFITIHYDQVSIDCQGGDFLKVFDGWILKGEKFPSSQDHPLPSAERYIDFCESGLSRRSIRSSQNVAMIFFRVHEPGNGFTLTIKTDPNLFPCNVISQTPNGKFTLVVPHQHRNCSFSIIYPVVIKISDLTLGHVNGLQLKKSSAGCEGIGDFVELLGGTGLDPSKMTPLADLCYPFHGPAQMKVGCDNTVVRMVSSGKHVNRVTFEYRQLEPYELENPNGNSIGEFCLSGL

[5] = biological target: FAD-linked sulfhydryl oxidase ALR (Homo sapiens, UniProt P55789); experiment: ALR-catalysed DTT oxidation blockers – biochemical, H2O2 detection, luminescence, cherry-pick, dose response (AID 493248)
[6] = Luminescence Cell-Based Dose Response HTS to Identify Activators of Luciferase Translation or Activity in H4 […] Cells. [Related pubchem assays: 1829 (Project Summary), 1814 (Primary HTS)]; assay type: functional
[7] = Luminescence Cell-Based Dose Confirmation HTS to Identify Activators of 5'UTR Stem-Loop Driven Alpha-Synuclein mRNA Translation in H4 Neuroglioblastoma Cells. [Related pubchem assays: 1829 (Project Summary), 1814 (Primary HTS)]; assay type: functional
H4 = experiment: Luminescence Cell-Based Dose Response HTS to Identify Activators of 5'UTR Stem-Loop Driven Prion Protein mRNA Translation in H4 Neuroglioblastoma Cells. [Related pubchem assays: 1829 (Project Summary), 1814 (Primary HTS)]; assay type: functional; conditions: Homo sapiens
H9c2 = experiment: cells; assay type: functional, cell-based; conditions: Rattus norvegicus, H9c2, Myocardium;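 note: confirmatory concentration-response retest of ultra-high-throughput screening hits for modulation of myocardial damage; cell death induced by hydrogen peroxide oxidative stress; compound pretreatment for 60 min then peroxide exposure for 2 h; potency is for protecting the cells against peroxide damage rather than for killing them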
[8] = alpha-synuclein stem-loop luciferase translation blockers – H4 neuroglioma cells, luminescence, confirmation (AID 1988); assay type: functional, cell-based
[9] = Luminescence Cell-Based Dose Response HTS to Identify Inhibitors of 5'UTR Stem-Loop Driven Prion Protein mRNA Translation in H4 Neuroglioblastoma Cells. [Related pubchem assays: 1827 (Project Summary), 1813 (Primary HTS)]; assay type: functional

Sequence of Large T antigen (P03070 whole entry): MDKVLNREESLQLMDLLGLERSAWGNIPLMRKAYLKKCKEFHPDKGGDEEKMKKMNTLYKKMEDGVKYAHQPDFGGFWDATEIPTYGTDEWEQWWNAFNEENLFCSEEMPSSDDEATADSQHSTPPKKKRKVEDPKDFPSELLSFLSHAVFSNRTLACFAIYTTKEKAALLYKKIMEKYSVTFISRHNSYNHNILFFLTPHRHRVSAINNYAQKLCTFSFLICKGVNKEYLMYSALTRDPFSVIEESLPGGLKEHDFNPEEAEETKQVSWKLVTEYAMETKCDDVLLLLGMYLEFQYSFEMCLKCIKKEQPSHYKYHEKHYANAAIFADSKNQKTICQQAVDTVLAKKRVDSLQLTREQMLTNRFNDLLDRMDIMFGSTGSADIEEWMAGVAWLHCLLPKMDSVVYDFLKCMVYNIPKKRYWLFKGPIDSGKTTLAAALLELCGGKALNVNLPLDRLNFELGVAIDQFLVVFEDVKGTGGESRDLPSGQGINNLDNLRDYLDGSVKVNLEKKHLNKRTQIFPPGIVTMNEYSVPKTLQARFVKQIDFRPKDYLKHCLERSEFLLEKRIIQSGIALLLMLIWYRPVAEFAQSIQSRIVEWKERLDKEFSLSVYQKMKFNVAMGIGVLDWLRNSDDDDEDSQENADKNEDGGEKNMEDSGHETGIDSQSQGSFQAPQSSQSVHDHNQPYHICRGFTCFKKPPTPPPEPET
Sequence of FAD-linked sulfhydryl oxidase ALR (P55789 whole entry): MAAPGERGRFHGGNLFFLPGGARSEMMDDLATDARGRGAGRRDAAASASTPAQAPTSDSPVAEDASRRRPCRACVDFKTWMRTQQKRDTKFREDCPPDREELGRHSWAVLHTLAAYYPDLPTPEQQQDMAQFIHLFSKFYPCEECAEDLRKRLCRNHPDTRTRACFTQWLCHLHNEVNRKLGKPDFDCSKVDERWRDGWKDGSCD
Sequence of Cytochrome P450 2D6 (P10635 whole entry): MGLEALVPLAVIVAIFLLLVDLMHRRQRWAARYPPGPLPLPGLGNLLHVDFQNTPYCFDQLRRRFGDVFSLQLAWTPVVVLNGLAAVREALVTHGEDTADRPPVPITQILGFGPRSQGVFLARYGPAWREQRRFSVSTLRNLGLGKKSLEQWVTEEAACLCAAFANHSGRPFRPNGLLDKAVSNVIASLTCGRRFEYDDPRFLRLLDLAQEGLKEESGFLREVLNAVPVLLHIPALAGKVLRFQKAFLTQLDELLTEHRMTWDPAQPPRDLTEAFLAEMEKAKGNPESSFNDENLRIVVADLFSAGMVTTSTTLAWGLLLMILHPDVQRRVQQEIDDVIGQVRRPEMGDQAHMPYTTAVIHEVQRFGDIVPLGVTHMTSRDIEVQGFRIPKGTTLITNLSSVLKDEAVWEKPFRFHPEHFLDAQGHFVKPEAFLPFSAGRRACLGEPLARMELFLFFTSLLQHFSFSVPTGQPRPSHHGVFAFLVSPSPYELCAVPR

SMILES	IC50 (Large T antigen)	EC50 (Streptokinase A)	EC50 [1]	EC50 (Streptococcus)	further results
CC(=O)Nc1ccc(S(=O)(=O)Nc2nc3ccccc3nc2Nc2ccc(N)cc2)cc1	18.5 µM (active)				
O=C(NNC(=S)NC(=O)c1ccccc1)c1ccc(O)cc1		> 150 µM (not active)	4.64 µM (active)	52.4 µM (inconclusive)	
CCn1cc(C(=O)NC(=S)Nc2ccccc2Br)cn1		> 150 µM (not active)	> 150 µM (not active)	> 150 µM (not active)	
COCCCN1C(=O)/C(=C/c2ccc(CNS(=O)(=O)c3ccccc3)o2)C(C(=O)OC)=C1C		> 150 µM (not active)	28.9 µM (active)	> 150 µM (not active)	
CCn1c(SCC(=O)N/N=C/c2ccc(O)c(OC)c2)nc2ccccc21	20.4 µM (active)				
Cc1ccc2ccc(C(Nc3ccccn3)c3ccccc3)c(O)c2n1 (configuration not stated)		> 150 µM (not active)	1.52 µM (active)	63.5 µM (active)	
CCOc1cc(C(c2c(C)n[nH]c2O)c2c(C)n[nH]c2O)ccc1OC(=O)c1cccc([N+](=O)[O-])c1	> 100 µM (active)				AC50 [2]: 0.365 µM (active); EC50 (Protein RecA): 0.205 µM (active)
N#C/C(=C\c1ccc(O)c(O)c1)C(=O)NCCc1ccccc1	7.1 µM (active)				AC50 (Cytochrome P450 2D6): 39.8 µM (inconclusive)
CCOC(=O)C1=C(O)/C(=C\c2ccc(O)c(OCC)c2)N=C1C	9.94 µM (active)				IC50 [3]: 43.3 µM (active)
CCOc1ccc(/C=N/NC(=O)CSc2ccccn2)cc1O	17.7 µM (active)				
Nc1ccc(NC(=O)NC2CCCCC2)cc1	10.5 µM (active)				
COc1ccc(OC)c(CCNC(=O)C(=O)Nc2ccc3nc4n(c(=O)c3c2)CCCCC4)c1		16.6 µM (active)	4.97 µM (active)	18.3 µM (active)	
CCCN1CCc2c(sc(NC(=O)c3ccc(S(=O)(=O)N4CCN(C(=O)OCC)CC4)cc3)c2C(N)=O)C1		> 150 µM (not active)	51.8 µM (active)	> 150 µM (not active)	EC50 [4]: 15.2 µM (active)
COc1cc(C#CC#CCN2CCCCC2)ccc1O	10.3 µM (active)				AC50 [5]: 3.57 µM (active); EC50 [6]: 6.95 µM (active); EC50 [7]: 6.87 µM (active); EC50 (H4): > 120 µM (not active)
O=C(NC(=S)N1CCN(c2ccc(O)cc2)CC1)c1cccs1	5.39 µM (active)				
CN1C(=O)NC(c2ccc(O)cc2)C2=C1CN(c1ccc(O)cc1)C2=O (configuration not stated)	8.64 µM (active)				IC50 [3]: 34.6 µM (active)
Cc1csc2nc(COC(=O)c3ccc(Cl)c([N+](=O)[O-])c3)cc(=O)n12					IC50 (H9c2): > 79 µM (inactive)
O=C(O)c1cccc(N/N=C/c2cccc3ccccc23)c1					EC50 [8]: 1.5 µM (active); EC50 [9]: 4.51 µM (active)
C[C@H](CO)N1C[C@H](C)[C@@H](CN(C)C(=O)Nc2ccc3c(c2)OCO3)Oc2c(NC(=O)Nc3ccc(C(F)(F)F)cc3)cccc2C1=O					IC50 (H9c2): 21.3 µM (active)
